As a reminder, the Ki is a dissociation constant, usually derived from enzyme kinetics or from competition with a known ligand. High values mean a looser hold on the target, low ones a stronger hold on the target. For orientation: IC50 means the concentration needed to halve the response being measured. A low value points to inhibition by little substance.

Results on three compounds are retold here after ChEMBL document CHEMBL1122749, “Synthesis and biological activity of 5-fluoro-2',3'-dideoxy-3'-fluorouridine and its 5'-phosphate” (J Med Chem, 1984).

Series [1] in a line: Apparent rate constant Kon for inactivation of dTMP synthase.
Series [2] can be described thus: Apparent rate constant Koff for inactivation of dTMP synthase.
In series [3] the target is Thymidylate synthase (Lactobacillus casei). Put plainly: In vitro competitive inhibition of dTMP synthetase with respect to substrate dUMP.
For series [4], the system named is L1210. As to the kind of experiment: In vitro concentration required for 50% inhibition (IC50) of growth of L1210 mouse leukemia cells in culture. It is filed as functional, cell-based.
The test system of series [5] is L1210. Put plainly: In vitro concentration required for 50% inhibition (IC50) of growth of L1210 mouse leukemia cells in culture. It is filed as functional, cell-based.
For series [6], the target named is T1, Thymidine phosphorylase (Mus musculus, UniProt Q99N42).
T1 sequence (Q99N42 whole entry): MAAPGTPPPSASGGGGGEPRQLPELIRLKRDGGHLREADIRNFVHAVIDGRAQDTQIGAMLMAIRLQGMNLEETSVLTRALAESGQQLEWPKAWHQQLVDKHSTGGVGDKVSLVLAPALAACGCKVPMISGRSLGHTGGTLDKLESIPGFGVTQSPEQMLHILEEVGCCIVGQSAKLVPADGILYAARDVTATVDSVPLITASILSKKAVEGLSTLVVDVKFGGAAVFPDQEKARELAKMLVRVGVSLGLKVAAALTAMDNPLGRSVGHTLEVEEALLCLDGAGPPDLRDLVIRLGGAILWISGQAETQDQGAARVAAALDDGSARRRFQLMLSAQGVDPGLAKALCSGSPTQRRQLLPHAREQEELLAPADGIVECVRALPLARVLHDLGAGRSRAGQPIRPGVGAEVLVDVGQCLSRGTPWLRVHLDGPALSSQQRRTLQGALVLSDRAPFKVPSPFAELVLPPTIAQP
Put plainly: In vitro non-competitive inhibition of cleavage of Thymidine (dThd) phosphorylase isolated from Lewis lung carcinoma. It is filed as tissue-based.

For the compound `O=c1[nH]c(=O)n(C2CC(F)C(COP(=O)(O)O)O2)cc1F` (stereo unspecified), in series [1], the Kon is 0.029 s⁻¹. Also, the K off in series [2] turned out to be 0.000233 s⁻¹. Also, the Ki in series [3] came out at 130 µM.

For `O=c1[nH]c(=O)n([C@H]2C[C@H](O)[C@@H](CO)O2)cc1F` [FLOXURIDINE], half-maximal inhibition in series [4] (IC50) was put at 0.0005 µM.

Consider `O=c1[nH]c(=O)n([C@H]2C[C@H](F)[C@@H](CO)O2)cc1F`, for which half-maximal inhibition in series [5] (IC50) was put at 3.4 µM. The compound also registered a Ki in series [6] of 1700 µM.
